Measurements: patent US20190099421A1, “CINNOLIN-4-AMINE COMPOUNDS AND THEIR USE IN TREATING CANCER” (AstraZeneca AB, priority 2016, published 2019)

Target: T1, ATM (Homo sapiens, UniProt Q13315)
T1 construct: endogenous in cells; host or cells: HT29 cells (ECACC #85061109)
Experiment: Assay a): ATM cellular potency (pATM Ser1981 in irradiated HT29 cells)
Type: cell-based
Settings: 1 h compound incubation, X-ray irradiation ~600 cGy, pATM (Ser1981) staining 1 h later; read-out: Assay a) ATM Cell IC50
Experimental: IC50 values were calculated using a smart fitting model in Genedata.
Most ATM molecules in the cell are rapidly phosphorylated on this site after doses of radiation as low as 0.5 Gy, and binding of a phosphospecific antibody is detectable after the introduction of only a few DNA double-strand breaks in the cell.
The rationale of the pATM assay is to identify inhibitors of ATM in cells. HT29 cells are incubated with test compounds for 1 hr prior to X-ray-irradiation. 1 h later the cells are fixed and stained for pATM (Ser1981). The fluorescence is read on the arrayscan imaging platform.
The following morning compounds of Formula (I) in 100% DMSO were added to assay plates by acoustic dispensing. After 1 h incubation at 37° C. and 5% CO2, plates (up to 6 at a time) were irradiated using the X-RAD 320 instrument (PXi) with equivalent to ˜600 cGy. Plates were returned to the incubator for a further 1 h. […] Then 20 μl of 0.1% Triton X100 in PBS was added and incubated for 20 minutes at r.t., to permeabalise cells. Then the plates were washed once with 50 μl/well PBS, using a Biotek EL405 plate washer.
After 1 h incubation at r.t., the plates were washed three times with 50 μl/well PBS, using a Biotek EL405 plate washer, and plates were sealed and kept in PBS at 4° C. until read. Plates were read using an ArrayScan VTI instrument, using an XF53 filter with 10× objective.

T1 sequence (Q13315 whole entry): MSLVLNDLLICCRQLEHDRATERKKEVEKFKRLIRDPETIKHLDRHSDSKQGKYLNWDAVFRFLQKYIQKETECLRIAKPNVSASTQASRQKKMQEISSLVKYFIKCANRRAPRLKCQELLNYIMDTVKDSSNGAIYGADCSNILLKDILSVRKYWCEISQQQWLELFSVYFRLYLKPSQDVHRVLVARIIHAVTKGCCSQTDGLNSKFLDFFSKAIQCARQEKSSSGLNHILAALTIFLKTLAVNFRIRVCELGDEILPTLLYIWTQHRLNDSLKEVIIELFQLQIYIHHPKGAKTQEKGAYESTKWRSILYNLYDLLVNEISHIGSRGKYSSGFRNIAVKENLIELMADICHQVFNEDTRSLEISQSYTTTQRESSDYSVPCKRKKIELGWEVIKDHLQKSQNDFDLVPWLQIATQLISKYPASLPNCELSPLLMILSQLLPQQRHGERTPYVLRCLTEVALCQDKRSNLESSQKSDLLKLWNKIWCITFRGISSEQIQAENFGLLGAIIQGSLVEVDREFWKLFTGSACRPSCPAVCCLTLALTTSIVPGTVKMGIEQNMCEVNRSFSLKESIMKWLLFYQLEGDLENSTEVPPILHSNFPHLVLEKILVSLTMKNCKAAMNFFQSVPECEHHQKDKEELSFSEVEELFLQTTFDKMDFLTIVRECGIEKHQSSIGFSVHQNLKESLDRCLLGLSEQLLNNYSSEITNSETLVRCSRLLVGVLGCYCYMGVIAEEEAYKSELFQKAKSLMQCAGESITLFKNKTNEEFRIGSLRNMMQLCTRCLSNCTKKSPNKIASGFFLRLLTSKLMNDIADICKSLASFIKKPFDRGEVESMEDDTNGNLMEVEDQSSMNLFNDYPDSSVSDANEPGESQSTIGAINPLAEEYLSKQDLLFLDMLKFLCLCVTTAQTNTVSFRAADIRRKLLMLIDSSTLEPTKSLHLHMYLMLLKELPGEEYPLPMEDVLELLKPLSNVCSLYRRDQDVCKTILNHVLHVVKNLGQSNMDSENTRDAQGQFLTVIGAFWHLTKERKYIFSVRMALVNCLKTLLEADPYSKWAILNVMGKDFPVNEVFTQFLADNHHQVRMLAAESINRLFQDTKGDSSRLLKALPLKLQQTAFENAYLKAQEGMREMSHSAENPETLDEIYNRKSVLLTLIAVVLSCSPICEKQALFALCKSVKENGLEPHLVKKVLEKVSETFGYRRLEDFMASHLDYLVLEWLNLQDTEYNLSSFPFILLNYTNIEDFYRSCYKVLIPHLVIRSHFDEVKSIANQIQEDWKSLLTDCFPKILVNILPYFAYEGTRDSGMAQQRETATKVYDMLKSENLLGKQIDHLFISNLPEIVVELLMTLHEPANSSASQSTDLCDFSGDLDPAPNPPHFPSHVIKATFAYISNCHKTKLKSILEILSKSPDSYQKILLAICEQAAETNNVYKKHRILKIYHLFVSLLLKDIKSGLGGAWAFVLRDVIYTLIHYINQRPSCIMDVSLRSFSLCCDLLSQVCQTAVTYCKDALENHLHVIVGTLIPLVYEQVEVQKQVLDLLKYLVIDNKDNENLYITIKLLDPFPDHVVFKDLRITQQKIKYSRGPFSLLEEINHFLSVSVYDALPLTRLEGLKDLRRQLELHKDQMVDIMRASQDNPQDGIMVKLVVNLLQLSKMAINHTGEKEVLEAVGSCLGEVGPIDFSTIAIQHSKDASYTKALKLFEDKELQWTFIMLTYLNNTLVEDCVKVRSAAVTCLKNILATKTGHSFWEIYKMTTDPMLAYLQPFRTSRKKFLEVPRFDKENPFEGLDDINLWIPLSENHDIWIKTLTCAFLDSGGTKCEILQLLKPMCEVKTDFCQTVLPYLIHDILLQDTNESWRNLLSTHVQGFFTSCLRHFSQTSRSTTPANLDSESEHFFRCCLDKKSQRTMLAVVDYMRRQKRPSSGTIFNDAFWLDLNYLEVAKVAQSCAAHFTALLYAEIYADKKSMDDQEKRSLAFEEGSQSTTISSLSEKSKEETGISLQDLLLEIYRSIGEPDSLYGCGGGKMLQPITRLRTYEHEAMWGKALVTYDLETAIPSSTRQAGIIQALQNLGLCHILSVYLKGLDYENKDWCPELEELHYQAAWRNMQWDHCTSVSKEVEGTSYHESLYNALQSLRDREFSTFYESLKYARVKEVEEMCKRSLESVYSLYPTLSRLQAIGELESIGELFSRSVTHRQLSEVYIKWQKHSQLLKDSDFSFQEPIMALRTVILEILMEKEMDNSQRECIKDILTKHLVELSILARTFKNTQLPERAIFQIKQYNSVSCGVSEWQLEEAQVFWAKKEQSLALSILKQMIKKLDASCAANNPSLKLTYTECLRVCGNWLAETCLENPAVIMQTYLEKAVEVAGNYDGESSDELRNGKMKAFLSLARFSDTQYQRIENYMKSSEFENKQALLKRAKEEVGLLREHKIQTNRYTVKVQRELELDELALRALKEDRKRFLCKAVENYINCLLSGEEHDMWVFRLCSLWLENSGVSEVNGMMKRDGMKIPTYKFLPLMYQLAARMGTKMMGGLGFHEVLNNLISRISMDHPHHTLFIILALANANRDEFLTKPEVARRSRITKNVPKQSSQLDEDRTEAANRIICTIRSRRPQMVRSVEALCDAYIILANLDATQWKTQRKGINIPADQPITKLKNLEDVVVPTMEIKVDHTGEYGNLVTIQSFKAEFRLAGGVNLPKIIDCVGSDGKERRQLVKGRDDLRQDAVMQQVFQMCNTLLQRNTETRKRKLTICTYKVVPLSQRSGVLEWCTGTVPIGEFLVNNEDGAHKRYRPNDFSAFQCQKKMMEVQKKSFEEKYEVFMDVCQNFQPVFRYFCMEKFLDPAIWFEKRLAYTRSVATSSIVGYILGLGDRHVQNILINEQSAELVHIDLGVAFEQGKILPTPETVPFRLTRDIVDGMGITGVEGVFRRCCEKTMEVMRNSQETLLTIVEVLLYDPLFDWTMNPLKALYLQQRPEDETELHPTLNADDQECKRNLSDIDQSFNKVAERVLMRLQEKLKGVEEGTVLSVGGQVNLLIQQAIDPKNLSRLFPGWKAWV

Row | SMILES | IC50
1 | CNCCCOc1ccc(-c2ccc3nnc(C(N)=O)c(N[C@@H](C)C4CCOCC4)c3c2)cn1 [Example 4, 6-[6-(3-Methylaminopropoxy)pyridin-3-yl]-4-[[(1S)-1-(oxan-4-yl)ethyl]amino]cinnoline-3-carboxamide] | 7.72 nM
2 | CNCCCOc1ccc(-c2ccc3nnc(C(=O)NC)c(N[C@@H](C)C4CCOCC4)c3c2)cn1 [Example 5, N-Methyl-6-[6-(3-methylaminopropoxy)pyridin-3-yl]-4-[[(1S)-1-(oxan-4-yl)ethyl]amino]cinnoline-3-carboxamide] | 4.91 nM
